Source: patent US9102622B2 (University of Connecticut, priority 2006, dated 2015)

Key:
[1] = molecular target: fatty acid amide hydrolase (FAAH) (Rattus norvegicus (Rat), UniProt P97612); test: FAAH enzyme assay: inhibition of anandamide (AEA) hydrolysis, arachidonic acid quantified by HPLC; type: biochemical; conditions: for inhibition at 100 µM: one-point assay, inhibitor 100 μM, partially purified rat brain FAAH, 15 min, read-out: % Inhibition (Concentration); for IC50 / Ki: eight-point assay; for IC50: anandamide hydrolysis by FAAH, read-out: IC50; for Ki: calculated with Prizm software, read-out: Ki
Chain of fatty acid amide hydrolase (FAAH) (P97612 whole entry): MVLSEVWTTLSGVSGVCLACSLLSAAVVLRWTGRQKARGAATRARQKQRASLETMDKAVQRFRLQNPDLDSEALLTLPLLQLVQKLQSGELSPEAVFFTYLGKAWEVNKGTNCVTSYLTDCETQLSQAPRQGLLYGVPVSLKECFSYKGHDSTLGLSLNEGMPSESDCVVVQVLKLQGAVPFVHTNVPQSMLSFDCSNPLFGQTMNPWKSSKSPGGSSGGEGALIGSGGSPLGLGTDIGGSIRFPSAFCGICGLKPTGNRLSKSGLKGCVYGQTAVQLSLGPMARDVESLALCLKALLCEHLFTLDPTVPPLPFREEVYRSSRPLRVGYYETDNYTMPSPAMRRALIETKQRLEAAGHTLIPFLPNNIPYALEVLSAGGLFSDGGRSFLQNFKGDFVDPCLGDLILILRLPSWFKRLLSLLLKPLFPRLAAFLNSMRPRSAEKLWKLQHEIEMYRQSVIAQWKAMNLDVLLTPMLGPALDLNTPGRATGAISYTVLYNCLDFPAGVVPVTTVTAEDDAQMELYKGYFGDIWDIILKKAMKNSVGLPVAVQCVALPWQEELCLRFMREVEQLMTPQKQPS
Protocol: The resulting supernatant is injected onto the HPLC.

inhibition at 100 µM [1]	melting point	IC50 [1]	Ki [1]	SMILES
56%	97 to 99 °C	–	–	Cc1nnc(C(=O)c2cccc(-c3cccc(OCc4ccccc4)c3)c2)o1 [Compound 78, 1-(3′-Benzyloxy-1,1′-biphenyl-3-yl)-1-(5-methyl-1,3,4-oxadiazol-2-yl)-ketone]
99%	65 to 67 °C	53.8 µM	12.7 µM	O=S(=O)(Cl)CCCCOc1ccccc1 [Compound 16, 4-Phenoxybutyl sulfonyl chloride]
99%	33 to 35 °C	53.8 µM	12.7 µM	O=S(=O)(Cl)CCCCCCCc1ccc(OCc2ccccc2)cc1 [Compound 12.1, 7-(4-Benzyloxy-phenyl)-heptanesulfonyl chloride]
46%	50 to 51 °C	34.6 µM	2.28 µM	O=C(CCCOc1ccccc1OCc1ccccc1)C(F)(F)F [Compound 23.8, 1,1,1-Trifluoro-5-[2-(Benzyloxy)phenoxy]-2-pentanone]
